Measurements reported in US8541462B2, “Tetrahydrocarbazole derivatives as ligands of G-protein coupled receptors” (AEterna Zentaris GmbH, priority 2007, dated 2013).
Counter-ions that a name gives are not always drawn.

Tests used:
[1] = Pharmacokinetic study (oral, cannulated rats, LC/MS of plasma); assay type: in vivo, rat
Experimental: Adult male Wistar rats weighing 278-290 g (Jinvier, France) were used in the study. Animals were housed in a temperature-controlled room (20-24° C.) and maintained in a 12 h light/12 h dark cycle. Food and water were available ad libitum.
For surgery, rats were anaesthetised with a ketamine (90 mg/kg)/xylazine (10 mg/kg) mixture, and cannulated with silicone tubing via the right jugular vein. Prior to the first blood sampling, animals were connected to a counterbalanced system and tubing to perform blood sampling in the freely moving rat.
Separate stock solutions (5 mg/ml) of compound 52 of the invention and prior art substance WO 2006/005484—substance 76 were prepared in Solutol HS 15/PEG300 (3:1). The whole process was performed under constant stirring. Half of the volume of the vehicle was added first. After sonication (5 minutes), the second half of the vehicle was added and the vials were again sonicated. All the solutions were clear and free of particles or agglomerates.
Immediately before application, the dosing mixture was prepared by adding equal volumes of the stock solutions to end up with a final concentration of 1 mg/ml for each compound. The mixture was applied orally to rats with an application volume of 5 ml/kg.
Blood samples (200 μl) were taken 1 hour before application and 1, 2, 4, 6, 8, 12 and 24 hours after. They were centrifuged at 650 g for 10 minutes at 4° C. and then the plasma was harvested and kept at −20° C. until LC/MS analysis.

[2] = Metabolic stability testing in liver microsomes; assay type: in vitro ADME; details: mixed-gender human liver microsomes, 1 mg microsomal protein/mL, initial concentration 10 μM, 60 minutes at 37° C.; WO 2006/005484-substance 7 = 100%
Experimental: Subcellular fractions of different tissues can be prepared easily by ultracentrifugation. Most commonly these are prepared from the liver of animals and human donors to gain information about the potential hepatic clearance of compounds (first-pass elimination of drugs). Human or animal (e.g. dog, mouse, rat) subcellular fraction like liver microsomes, or possibly the fraction called S9 have therefore become a very commonly and widely used as an in vitro model to investigate mainly cytochrome P450 dependent phase I (but also phase II) metabolism that takes place in the liver.
In order to reflect the standard proportion of the enzymes in human and animal livers, liver microsomes are usually pooled from a number of […] of the same sex (or mixed-gender). By supplementing the liver microsomes with relevant cofactors and other components it is possible to investigate and distinguish between CYPs, flavin-containing monooxygenase (FMO) and UDP-glucuronosyltransferase (UGT) activities.
Selected compounds of the invention were tested for their stability in mixed-gender human liver microsomes and compared to pertinent prior art compounds.
Under the test conditions applied (1 mg microsomal protein/mL, initial concentration of 10 μM, and incubation for 60 minutes at 37° C.) the following normalized results were obtained.

[3] = target: T1, LHRH receptor (endogenous GnRH receptor of alpha T3-1 cell line) (Mus musculus, UniProt Q01776); test: LHRH-receptor binding assay (displacement of [125I] cetrorelix on alpha T3-1 cells); details: WO 2006/005484-substance 75 = 100%
T1 construct: alpha T3-1 cell line with endogenous GnRH receptor expression; endogenous in cells; host or cells: alpha T3-1 cells (intact cell suspension)
T1 sequence (Q01776 1-327): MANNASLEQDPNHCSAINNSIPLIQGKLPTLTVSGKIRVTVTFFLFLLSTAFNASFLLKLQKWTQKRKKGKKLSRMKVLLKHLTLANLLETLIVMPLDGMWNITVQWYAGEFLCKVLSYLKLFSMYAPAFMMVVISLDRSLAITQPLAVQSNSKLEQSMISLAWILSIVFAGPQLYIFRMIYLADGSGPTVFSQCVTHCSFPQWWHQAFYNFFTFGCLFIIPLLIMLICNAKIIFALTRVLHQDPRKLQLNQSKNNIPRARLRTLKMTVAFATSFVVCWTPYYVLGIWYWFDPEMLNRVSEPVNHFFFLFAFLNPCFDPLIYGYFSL
Experimental: For LHRH receptor binding studies, an assay system using alpha T3-1 cell line with endogenous GnRH receptor expression was employed (Windle et al., Mol. Endocrinol. 1990, 4(4): 597-603).
Iodinated cetrorelix was used as a tracer with about 80% of peptide capable of specific receptor association.
For displacement binding assays, the cells were incubated with approximately 200 pM [^125l] cetrorelix and different concentrations of unlabeled test compounds as competitor. The cell suspension in binding medium was layered on top of silicon/paraffin oil, incubated for 60 min at 37° C. and separated by centrifugation. The tips of the tubes containing the cell pellet were cut off, subsequently cell pellet and supernatant were analyzed by gamma-radiation analysis.
The amount of unspecific binding was determined by including unlabeled cetrorelix at 1 μM final concentration and was typically ≦10% of total binding. IC50 values were calculated by using the GraphPad Prism analysis program (GraphPad Software Inc.).

plasma testosterone = test: Testosterone suppression experiment (plasma testosterone ELISA); assay type: in vivo, rat; details: male Wistar rats, po in Solutol HS15/PEG300 (3:1), samples up to 24 h post-dose
Experimental: Male Wistar rats weighing 248-296 g (Janvier, France) were used in the present study. Animals were housed in a temperature-controlled room (20-22° C.) and maintained in a 12 h light/12 h dark cycle. Food and water were available ad libitum.
Rats were anaesthetised with a ketamine (135 mg/kg)/xylazine (10 mg/kg) mixture, and cannulated with silicone tubing via the right jugular vein. Prior to the first blood sampling, animals were connected to a counterbalanced system and tubing, to perform blood sampling in the freely moving rat.
The dosing solutions were prepared immediately before application. […]
The concentrations of testosterone in the rat plasma samples were determined using the Testosterone ELISA (EIA-1559) from DRG Instruments according to the manufacturer's instructions. […] The plate was read within the next 30 min with a Spectramax Plus (Molecular Devices) at 450 nm. The concentration of testosterone in the samples was calculated from the standard curve and is inversely proportional to the optical density measured.
Due to the pulsatile release of testosterone in intact rats, two pre-treatment samples ere collected to establish baseline values prior the administration of the compound. […] The pre-treatment mean value was compared to the testosterone levels measured after application.

[4] = rat, plasma, male Wistar rats, oral, 5 mg/kg, mixture of both compounds in Solutol HS 15/PEG300 (3:1)

| AUC(0-t) [1, 4] [ng·h/mL] | Cmax [1, 4] [ng/mL] | Tmax [1, 4] [h] | higher AUC compared to the pertinent prior art substance (indicative for bioavailability) ([1]; versus WO 2006/005484-substance 76, rats, oral 5 mg/kg) | Normalized microsomal stability [2] [%] | Normalized Affinity [3] [%] | SMILES | mean plasma testosterone concentration over time (FIG. 2) (plasma testosterone) |
| --- | --- | --- | --- | --- | --- | --- | --- |
| 306 | 38.2 | 4 | more than 300% | 178 | 218 | CCC(C)[C@H](NC(=O)Cc1ccccc1F)C(=O)N[C@]1(C(=O)N[C@H](C(=S)NCC2CCOCC2)C(C)CC)CCc2[nH]c3c(C(F)(F)F)cccc3c2C1 (stereo partly drawn) [Compound 52, (R)-3-{(S)-2-[2-(2-Fluoro-phenyl)-acetylamino]-3-methyl-pentanoylamino}-8-trifluoromethyl-2,3,4,9-tetrahydro-1H-carbazole-3-carboxylic acid {(S)-2-methyl-1-[(tetrahydro-pyran-4-ylmethyl)-thiocarbamoyl]-butyl}-amide] | – |
| – | – | – | – | 1041 | 529 | CCC(C)[C@H](NC(=O)Cc1ccccc1F)C(=O)N[C@]1(C(=O)N[C@H](C(=O)Nc2ccc(OC)c(O)c2)C(C)CC)CCc2[nH]c3c(C(F)(F)F)cccc3c2C1 (stereo partly drawn) [Compound 69, (R)-3-{(S)-2-[2-(2-Fluoro-phenyl)-acetylamino]-3-methyl-pentanoylamino}-8-trifluoromethyl-2,3,4,9-tetrahydro-1H-carbazole-3-carboxylic acid [(S)-1-(3-hydroxy-4-methoxy-phenylcarbamoyl)-2-methyl-butyl]-amide] | – |
| – | – | – | – | 1889 | 247 | CCC(C)[C@H](NC(=O)Cc1ccccc1F)C(=O)N[C@]1(C(=O)N[C@H](C(=S)NCCCn2ccnc2)C(C)CC)CCc2[nH]c3c(C(F)(F)F)cccc3c2C1 (stereo partly drawn) [Compound 74, (R)-3-{(S)-2-[2-(2-Fluoro-phenyl)-acetylamino]-3-methyl-pentanoylamino}-8-trifluoromethyl-2,3,4,9-tetrahydro-1H-carbazole-3-carboxylic acid [(S)-1-(3-imidazol-1-yl-propylthiocarbamoyl)-2-methyl-butyl]-amide] | – |
| – | – | – | – | – | 247 | CCC(C)[C@H](NC(=O)Cc1ccccc1F)C(=O)N[C@]1(C(=O)N[C@H](C(=S)NCCN2CCOCC2)C(C)CC)CCc2[nH]c3c(C(F)(F)F)cccc3c2C1 (stereo partly drawn) [compound 54 (TFA salt), (R)-3-{(S)-2-[2-(2-Fluoro-phenyl)-acetylamino]-3-methyl-pentanoylamino}-8-trifluoromethyl-2,3,4,9-tetrahydro-1H-carbazole-3-carboxylic acid [(S)-2-methyl-1-(2-morpholin-4-yl-ethylthiocarbamoyl)-butyl]-amide] | testosterone suppression |
